Data set [1] concerns NO production in LPS-induced RAW 264.7 cells. In words: Inhibitory effect on NO production in LPS-induced RAW 264.7 cells (Griess reagent). Type of data set: cell-based. To be noted: for NO Inhibitory Effect IC50 / IC50: investigated compounds, LPS (1 µg/mL)-induced RAW 264.7 cells, 24 h; for IC50: Mus musculus, RAW264.7. How it is done: The culture medium was replaced with DMEM medium containing various concentrations of TGT or target compound, subsequently treated with LPS (1 µg/mL), and then incubated for 24 h. After 50 µL of cultured medium was transferred to a new 96-well plate, 50 µL of Griess reagent was added to each well. The absorbance at 540 nm was determined using a microplate reader (PerkinElmer, Waltham, MA, USA). The concentration of NO in the culture supernatants was calculated by using a standard curve of nitrite, a major stable product of NO, which was generated according to the application instructions for the Griess reagent.
On the technique in general: Nitrite, measured by Griess reagent, commonly stands in for NO production.

The subject of data set [2] is RAW 264.7 cells. The data set can be described thus: Cytotoxicity against RAW 264.7 cells (CCK-8 method). To be noted: for Cytotoxicity TC50 / Therapeutic Index (TI, = TC50/IC50): investigated compounds; for Cytotoxicity TC50: 24 h, CCK-8. (Formazan colour is commonly taken as a measure of viable cells.)
Experimental: Cells were cultured at 37 °C in a humidified air incubator with 5% CO2 in Dulbecco’s modified Eagle’s medium (DMEM; Gibco, Grand Island, NY, USA) supplemented with 10% fetal bovine serum (FBS; Gibco, USA), 100 units/mL penicillin and 100 µg/mL streptomycin (Gibco, USA).
RAW 264.7 cells (5.0 × 10^4 cells/well) were seeded into a 96-well plate. After overnight incubation, various concentrations of TGT or target compound were applied to the cells, which were then incubated for 24 h. The same volume of DMSO was added to the compound-untreated group to account for any effects of DMSO on cell viability. Then, the culture medium was removed, 100 μL DMEM medium plus 10 μL CCK-8 reagent (MCE, Suzhou, China) was added, and the cells were incubated for another 2 h at 37 °C in a 5% CO2 incubator. Absorbance at 450 nm was read using a microplate reader, and cell viability was calculated as the percentage of absorbance of various concentrations versus the control group.
On the set-up of data set [3]: method as in PMID 29787994. To be noted: reported in the literature ref [20]; cited from earlier work.

Structures are written as SMILES.

In general, IC50 refers to the concentration needed to halve the response being measured. A low value points to higher potency.

As to `CC(=O)OC[C@]12[C@H](OC(C)=O)[C@H](OC(C)=O)[C@@H]3[C@@H](OC(C)=O)[C@@]14O[C@@]3(C)COC(=O)c1cccnc1CCC(C)C(=O)O[C@@H]([C@H](OC(=O)c1ccco1)[C@@H]2OC(C)=O)[C@]4(C)O` (stereo partly shown) [wilforgine], in data set [1], the “NO Inhibitory Effect IC50” value is on record as “w (had weak NO inhibitory effect or cytotoxicity with an NO production rate less than 50% or the cell viability more than 50% at a concentration of 50 μM)”. In data set [2], the “Cytotoxicity TC50” value is reported as “w (had weak NO inhibitory effect or cytotoxicity with an NO production rate less than 50% or the cell viability more than 50% at a concentration of 50 μM)”.

For the molecule `CC1(C)[C@@H](O)CC[C@]2(C)[C@H]3CC=C4[C@@H]5C[C@@]6(C)C[C@H](OC6=O)[C@]5(C)CC[C@@]4(C)[C@]3(C)CC[C@@H]12` [wilforlide A], the “NO inhibitory effect / anti-inflammatory activity, in words” value in data set [1] (LPS-induced RAW 264.7 cells, up to 50 μM) is “negligible anti-inflammatory activity”. In data set [1], this molecule came in with an IC50 of over 50 µM. Moreover, the oral bioavailability result in data set [3] is listed as “extremely low”. Further, the “Cytotoxicity TC50” value in data set [2] is on record as “nu (Had no NO inhibitory effect or cytotoxicity with an NO production rate less than 0 or cell viability more than 100% at a concentration of 50 μM)”. Moreover, the “cytotoxicity / influence on cell viability, in words” value in data set [2] (up to 50 μM) is “negligible”.

On to `CC(C)[C@]12O[C@H]1[C@@H]1O[C@]13[C@]1(O[C@H]1C[C@H]1C4=C(CC[C@@]13C)C(=O)OC4)[C@@H]2O` [triptolide], for which half-maximal inhibition in data set [1] (IC50) required 0.066 µM. Also, in data set [2], the “Therapeutic Index (TI, = TC50/IC50)” value is given as 1.08 and the “Cytotoxicity TC50” value was 0.071 µM.

For `CC(C)C1=CC(=O)C2=C(CC[C@H]3[C@@](C)(CO)C(=O)CC[C@]23C)C1=O` [triptoquinone B], inhibition in data set [1] was half-maximal at 35.6 µM (IC50). For the same molecule, in data set [2], the “Therapeutic Index (TI, = TC50/IC50)” value is given as 0.0031 and the “Cytotoxicity TC50” value came out at 0.11 µM.

On to `CC(=O)OC[C@]12[C@H](OC(C)=O)[C@H](OC(C)=O)[C@@H]3[C@@H](OC(C)=O)[C@@]14O[C@@]3(C)COC(=O)c1cccnc1CCC(C)(O)C(=O)O[C@@H]([C@H](OC(=O)c1ccco1)[C@@H]2OC(C)=O)[C@]4(C)O` (stereo partly shown) [wilfortrine], for which the IC50 in data set [1] was over 50 µM. The “Cytotoxicity TC50” value in data set [2] was “nu (Had no NO inhibitory effect or cytotoxicity with an NO production rate less than 0 or cell viability more than 100% at a concentration of 50 μM)”.

As to `C[C@@]1(C(=O)O)CC[C@]2(C)CC[C@]3(C)C4=CC(=O)c5c(cc(O)c(O)c5C=O)[C@]4(C)CC[C@@]3(C)[C@@H]2C1` [demethylzeylasteral], the IC50 in data set [1] is 3.48 µM. Also, in data set [2], the “Therapeutic Index (TI, = TC50/IC50)” value is given as 7.93 and the “Cytotoxicity TC50” value amounted to 27.59 µM.

The molecule `C[C@@]1(O)C[C@@]23CC[C@H]4[C@@]5(CCC[C@]4(C)C(=O)OC5)[C@@H]2CC[C@H]1C3` [tripterifordin] came in with an IC50 in data set [1] of over 50 µM. For the same molecule, the “Cytotoxicity TC50” value in data set [2] is recorded as “w ^b (had weak NO inhibitory effect or cytotoxicity with an NO production rate less than 50% or the cell viability more than 50% at a concentration of 50 μM)”.

With `CC1=C(O)C(=O)C=C2C1=CC=C1[C@@]2(C)CC[C@@]2(C)[C@@H]3C[C@](C)(C(=O)O)CC[C@]3(C)CC[C@]12C` [celastrol], the IC50 in data set [1] was found to be 0.56 µM. Besides, in data set [2], the “Therapeutic Index (TI, = TC50/IC50)” value is 3.07 and the “Cytotoxicity TC50” value amounted to 1.72 µM.

Molecule `CC(=O)OC[C@]12[C@H](OC(C)=O)[C@H](OC(C)=O)[C@@H]3[C@@H](OC(C)=O)[C@@]14O[C@@]3(C)COC(=O)c1cccnc1C(C)C(C)C(=O)O[C@@H]([C@H](OC(C)=O)[C@@H]2OC(C)=O)[C@]4(C)O` (stereo partly shown) [euonymine] gave an IC50 in data set [1] of over 50 µM. The “Cytotoxicity TC50” value in data set [2] is reported as “nu (Had no NO inhibitory effect or cytotoxicity with an NO production rate less than 0 or cell viability more than 100% at a concentration of 50 μM)”.

`CC(C)c1ccc2c(c1O)CC[C@H]1C3=C(CC[C@]21C)C(=O)OC3` [triptophenolide] gave an IC50 in data set [1] of 43.1 µM.

As to `CC(=O)OCC12C(OC(C)=O)C(OC(C)=O)C3C(OC(C)=O)C14OC3(C)COC(=O)c1cnccc1C(C)C(C)C(=O)OC(C(OC(C)=O)C2OC(C)=O)C4(C)O` (stereo not shown) [peritassine A], the IC50 in data set [1] was over 50 µM. In data set [2], the “Cytotoxicity TC50” value is reported as “nu (Had no NO inhibitory effect or cytotoxicity with an NO production rate less than 0 or cell viability more than 100% at a concentration of 50 μM)”.

In data set [1], `CC(=O)OCC12C(OC(C)=O)C(OC(C)=O)C3C(O)C14OC3(C)COC(=O)c1cccnc1C(C)C(C)C(=O)OC(C(OC(C)=O)C2OC(C)=O)C4(C)O` (stereo not shown) [neoeunymine] returned an IC50 of over 50 µM. Moreover, the “Cytotoxicity TC50” value in data set [2] is given as “nu (Had no NO inhibitory effect or cytotoxicity with an NO production rate less than 0 or cell viability more than 100% at a concentration of 50 μM)”.

Take `CC(=O)OCC12C(OC(C)=O)C(OC(C)=O)C3C(OC(C)=O)C14OC3(C)COC(=O)c1cccnc1CCC(C)(OC(=O)c1ccccc1)C(=O)OC(C(OC(C)=O)C2OC(C)=O)C4(C)O` (stereo not shown) [wilfornine A]: in data set [1], the “NO Inhibitory Effect IC50” value is reported as “w (had weak NO inhibitory effect or cytotoxicity with an NO production rate less than 50% or the cell viability more than 50% at a concentration of 50 μM)”. For the same molecule, the “Cytotoxicity TC50” value in data set [2] is recorded as “w (had weak NO inhibitory effect or cytotoxicity with an NO production rate less than 50% or the cell viability more than 50% at a concentration of 50 μM)”.

On to `CC(=O)OC[C@]12[C@H](OC(C)=O)[C@H](OC(C)=O)[C@@H]3[C@@H](OC(C)=O)[C@@]14O[C@@]3(C)COC(=O)c1cccnc1CCC(C)C(=O)O[C@@H]([C@H](OC(=O)c1ccccc1)[C@@H]2OC(C)=O)[C@]4(C)O` (stereo partly shown) [wilforine], for which the “NO Inhibitory Effect IC50” value in data set [1] is “w (had weak NO inhibitory effect or cytotoxicity with an NO production rate less than 50% or the cell viability more than 50% at a concentration of 50 μM)”. Besides, the “Cytotoxicity TC50” value in data set [2] is “w (had weak NO inhibitory effect or cytotoxicity with an NO production rate less than 50% or the cell viability more than 50% at a concentration of 50 μM)”.

The record behind these values is paper PMC9416487, “Comprehensive Evaluation of the Quality of Tripterygium Glycosides Tablets Based on Multi-Component Quantification Combined with an In Vitro Biological Assay” (Molecules, 2022).
